≈ marks a conversion by molar mass, not a printed value. Entries after “also recorded” stand apart in the source; their conditions may differ.
What was measured:
[1] = Partition coefficients of CBZ and ROY in PEGMDA microgels from ethanol solutions; format: physicochemical; details: ethanol solution
[2] = CBZ anhydrous forms; ambient conditions; cited from earlier work
[3] = CBZ nucleation induction time and polymorphic outcome with PEGMDA microgels in ethanol; format: physicochemical
Description: Results and Discussion: Monodispersed cubelike PEGMDA microgels (FIG. 27 left), with M ranging from 130 to 700 g/mol were synthesized by Stop-Flow Lithography, The mesh sizes vary from 0.7 to 1.5 nm in solvent ethanol (Table 9), estimated from equilibrium swelling by the Flory-Rehner theory. The accuracy of this method for obtaining mesh sizes has been confirmed with Small-Angle Neutron Scattering in a different solvent. The microgels were utilized for controlling polymorph crystallization by suspending ˜10 μg of microgels per 1 ml solution by stiffing. Such a low microgel concentration may be sufficient to effect drastic change in the crystallization behavior (discussed later), underscoring the effectiveness of polymer microgels in controlling crystallization. In all crystallization experiments, supersaturation of the solution was generated by cooling instead of solvent evaporation, despite its popularity in numerous polymorph studies, to yield better control over the crystallization process.
Occasionally, pure Form III was also obtained from bulk experiments. […] However, such polymorph selectivity could not be attained using microgels with M<400 g/mol (˜100 trials) where the polymorphic outcome was quite similar to that of the bulk samples (Table 9), only with a decreased mass fraction of Form I in the mixture obtained (FIG. 28 discussed later) and a lower frequency of occurrence of Form III.
Average mesh size ξ was estimated from equilibrium swelling experiments in solvent ethanol. Induction time distribution data were fitted with stretched exponentials via nonlinear least square regression: P=exp[−(t/τ)^β], where P is the probability to observe no crystallization event within time t.
Induction time was measured by monitoring IR transmission signal passing through a solution in controlled temperature environment and stirring condition. Once nucleation occurred, the solution became turbid in seconds indicated by a sharp drop of IR signal, due to secondary nucleation and rapid crystal growth. The statistical nature of nucleation necessitated a large number of experiments (50-100) for obtaining the distribution of induction times, from which the average induction time τ was regressed with a stretched-exponential model, P(t)=exp[−(t/τ)^β], where P is the probability to observe no crystallization event within time t. In brief, the stretched-exponential model modified the single exponential model derived from the Poisson statistics, P(t)=exp (−t/τ) by adding an exponent β to the dimensionless induction time t/τ to capture the spread in characteristic time scales caused by a distribution of nucleation active sites present in the system.

[4] = Equilibrium partitioning of ASA / ACM into PEGDA and PEGDA-co-AM gels; format: physicochemical; details: for increase in κ with modified gels: ACM
Method: This theory is exemplified by quantifying the partitioning of aspirin between the PEGDA gel phase and 38/62 ethanol/water (v/v), and determining the concentration of aspirin in the hydrogel particles. The partitioning experiments were performed at the same solution concentration and temperature as in the nucleation induction time experiments. In the partitioning experiment, both the concentrations of aspirin and ethanol were measured, as there are three species in the bulk solution, namely aspirin, ethanol and water, all of which partition in the gel phase to a certain degree determined by their relative interaction with the PEGDA polymer matrix.
Composition of aspirin solution in the PEGDA gel phase were compared with the bulk phase. PEGDA gels sufficiently large for convenient handling were synthesized by UV polymerization, following the same formulation as the synthesis of PEGDA particles used in the crystallization study. The PEGDA gels were washed with ethanol and vacuum dried to remove unreacted species. The gel was then immersed in excessive 38 mg/ml aspirin solution in 38/62 ethanol/water (v/v) and allowed sufficient time to reach equilibrium swelling at 15° C. before taken out, pad dried, and put in excessive water. After 5 hours immersed in water, the concentrations of aspirin and ethanol in the aqueous phase were analyzed by UV-Vis spectroscopy and Gas Chromatography, respectively.
In FIG. 10: Partitioning of aspirin vs. acetaminophen in the PEGDA gel. Y axis represents the relative API concentration in the PEGDA, normalized by the bulk concentration. The aspirin partitioning experiment was conducted in 38 mg/ml aspirin solution in 38/62 ethanol/water (v/v) at 15° C. As for acetaminophen, 95 mg/ml acetaminophen solution in 38/62 ethanol/water (v/v) was used and the equilibration temperature was 8° C. In both cases, the experimental conditions were kept the same as used in the nucleation induction time study.
Quantification of polymer-solute interactions: The strength of intermolecular interactions between the PEGDA-co-AM polymer network and the molecule to crystallize was characterized with the solute equilibrium partition coefficient at the same condition as used in the crystallization study. Solute partition coefficient κ, defined as the ratio of solute mass fraction in solution confined in the gel to that in the bulk, is a relevant parameter because it informs the solute concentration in the gel at the crystallization condition, which is an important factor affecting nucleation. […] The PEGDA polymers are comprised of the PEG subchain and the acrylate crosslinkers.
Partition coefficient measurements: Partition coefficients of ASA in PEGDA-co-AM gels from its bulk solution were determined as follows. In brief, a series of gels with varying mesh sizes of approximately 5 mm in diameter and 0.5 mm in thickness were synthesized via UV polymerization following the same formula as used in the microgel synthesis. The residue solvent, porogen and monomer molecules were removed by extensive washing with solvent ethanol and subsequent vacuum drying. The dry gels were then immersed in excessive volume of 38 mg/ml ASA solution in 38/62 (v/v) ethanol/water at 15° C. for overnight.

[5] = Solubility of ASA and ACM; format: physicochemical; details: aqueous with cosolvent or surfactant or cyclodextrin; 38/62 (v/v) ethanol/water mixture at 25° C
[6] = Nucleation induction time of ASA / ACM with PEGDA or PEGDA-co-AM microgels in 38/62 ethanol/water; format: physicochemical; details: for average nucleation induction time τ: ACM S = 3.7; for Average nucleation induction time τ (stretched exponential fit) / τ1 (two-exponential fit) / τ2 (two-exponential fit): ACM
Description: Nucleation kinetics of model compounds was investigated by measuring the nucleation induction time probability distribution. Nucleation induction time is generally time elapsed prior to the formation of a detectable amount of the new crystalline phase. It is a useful indicator of the surface nucleation activity because it can be dramatically shortened when the presence of an interface lowers the free energy barrier of nucleation. Due to the stochastic nature of nucleation events, a large number of experiments were performed to obtain the probability distribution of nucleation induction time. To obtain the average induction time τ, statistical analysis on the induction time data was conducted based on the understanding that nucleation follows a Poisson distribution. According to Poisson statistics, the probability for a nucleation event to occur beyond time t is P=exp(−t/τ), which implies that the fraction of vials without nucleation at time t exponentially decays as a function of time, where the scaling factor for time is the average induction time.
For determining the statistical analysis of aspirin nucleation induction time with PEGDA particles of various mesh sizes (particles denoted by Mn), 1.9 mL of 38 mg/ml ASA solution in 38/62 ethanol/water (v/v) with 15 μg/mL PEGDA particles was cooled at a rate of 5° C./min from 35° C. to 15° C. to achieve a supersaturation of 2.1. The solution was stirred at 700 rpm. The onset of nucleation was detected by an IR probe which measures the transmission signal through the solution. A total of 10 vials were cycled for 5-10 times to yield 50-100 nucleation induction time measurements for the statistical analysis.
The nucleation rate, J, is given by J=1/τV, where τ the average induction time (Table 1) and V the volume of solution. For this equation to be valid, the assumption is that the crystal growth rate is much faster than the nucleation rate, which is the case for ASA. […] Other crystallization conditions were kept the same.
[…] The solution was stirred at 700 rpm. The onset of nucleation was detected by an IR probe which measures the transmission signal through the solution. A total of 10 vials were cycled for 5-10 times to yield 50-100 nucleation induction time data for the statistical analysis.
Effect of polymer gels on nucleation induction time statistics: To evaluate the impact of polymer-solute interactions on nucleation kinetics, induction times of ASA and ACM were measured with microgels of a series average mesh sizes before and after chemical modification suspended in respective supersaturated solutions. […] For each system, a large number of experiments (50-100) were conducted to obtain the induction time probability distribution. The nucleation induction time generally follows the Poisson distribution. However, deviations can occur, as observed in this study, when there is more than one type of nucleation sites in a sample, giving rise to multiple Poisson processes with different characteristic time scales.
For samples with PEGMDA microgels, the nucleation induction time distributions reported in previous work can be faithfully described by stretched exponentials (Tables 5 and 6), P=exp[−(t/τ)^β], where P is the probability to observe no crystallization event within time t, τ the average induction time. The stretched exponential exponent β served as a measure for the spread of time scales characterizing the nucleation process, or the distribution of kinetic barriers arisen from the heterogeneity of the system. Such heterogeneity can be attributed to the heterogeneity of the polymer microstructure identified using SANS, which resulted from a distribution of nucleation sites arising from spatial variations in both the mesh size and chemical composition of the hydrogel at nanometer length scales. Note that β varies with the average mesh size of the microgel. […]

[7] = CBZ, Bulk ethanol solution, S=1.63, T=25° C
[8] = CBZ, PEGMDA microgels M 130 g/mol
[9] = CBZ, PEGMDA microgels M 200 g/mol
[10] = PEGDA-co-AM microgels M 130 g/mol
[11] = PEGDA-co-AM microgels M 200 g/mol
[12] = PEGDA-co-AM microgels M 400 g/mol

Compound: NC(=O)N1c2ccccc2C=Cc2ccccc21 [CBZ, carbamazepine]
- Partition coefficient κ (solute mass fraction in gel solution / bulk) ([1]; PEGMDA microgels M 130 g/mol): 3.0 ± 0.4
- Partition coefficient κ (solute mass fraction in gel solution / bulk) ([1]; PEGMDA microgels M 200 g/mol): 2.7 ± 0.1
- Partition coefficient κ (solute mass fraction in gel solution / bulk) ([1]; PEGMDA microgels M 400 g/mol): 3.8 ± 0.2
- Partition coefficient κ (solute mass fraction in gel solution / bulk) ([1]; PEGMDA microgels M 575 g/mol): 3.8 ± 0.04
- Partition coefficient κ (solute mass fraction in gel solution / bulk) ([1]; PEGMDA microgels M 700 g/mol): 3.7 ± 0.1
- energy separation between form III and II [2]: less than 0.7 kcal/mol
- Polymorph [3, 7]: concomitant crystallization of Forms I and II; also recorded: II & I, occasionally
- average nucleation induction time τ [3, 7]: 427 ± 13 min
- Polymorph [3, 8]: II & I
- average nucleation induction time τ [3, 8]: 222 ± 5 min
- Polymorph [3, 9]: II & I
- average nucleation induction time τ [3, 9]: 174 ± 11 min
- average nucleation induction time τ ([3]; CBZ, PEGMDA microgels M 400 g/mol): 10.9 ± 0.3 min
- average nucleation induction time τ ([3]; CBZ, PEGMDA microgels M 575 g/mol): 33 ± 1 min
- average nucleation induction time τ ([3]; CBZ, PEGMDA microgels M 700 g/mol): 49 ± 1 min
- Polymorph crystallized ([3]; CBZ, PEGMDA microgels with M≧400 g/mol, ~250 trials): pure Form II
- optimum mesh size for CBZ nucleation ([3]; PEGMDA microgels): 1.1 nm

Compound: CC(=O)Nc1ccc(O)cc1 [acetaminophen]
- acetaminophen concentration in PEGDA particles relative to bulk concentration ([4]; 95 mg/ml in 38/62 ethanol/water, 8° C, FIG. 10): approximately twice the bulk concentration
- increase in κ with modified gels ([4]; Mn=130 g/mol): 35%
- increase in κ with modified gels ([4]; Mn=700 g/mol): 14%
- solubility [5]: 90 mg/mL (≈ 595 mM)
- average nucleation induction time τ ([6]; Bulk (no particles), 38/62 ethanol/water): 6500 ± 1600 min
- average nucleation induction time τ ([6]; PEGDA microparticles Mn 130 g/mol): 920 ± 70 min
- average nucleation induction time τ ([6]; PEGDA microparticles Mn 200 g/mol): 540 ± 20 min
- average nucleation induction time τ ([6]; PEGDA microparticles Mn 400 g/mol): 1720 ± 150 min
- average nucleation induction time τ ([6]; PEGDA microparticles Mn 700 g/mol): 6500 ± 1600 min
- Average nucleation induction time τ (stretched exponential fit) ([6]; Bulk): 37000 min
- Average nucleation induction time τ (stretched exponential fit) ([6]; PEGDA microgels M 130 g/mol): 1600 min
- Average nucleation induction time τ (stretched exponential fit) ([6]; PEGDA microgels M 200 g/mol): 480 min
- Average nucleation induction time τ (stretched exponential fit) ([6]; PEGDA microgels M 400 g/mol): 5300 min
- Average nucleation induction time τ (stretched exponential fit) ([6]; PEGDA microgels M 700 g/mol): 37000 min
- τ1 (two-exponential fit) [6, 10]: 55 min
- τ2 (two-exponential fit) [6, 10]: 1360 min
- τ1 (two-exponential fit) [6, 11]: 88 min
- τ2 (two-exponential fit) [6, 11]: 12400 min
- τ1 (two-exponential fit) [6, 12]: 70 min
- τ2 (two-exponential fit) [6, 12]: 35000 min
- promotion of nucleation kinetics when AM co-monomer was introduced into the PEGDA matrix ([6]; PEGDA-co-AM vs PEGDA microgels): up to two orders of magnitude
- best enhancement in nucleation kinetics by addition of PEGDA particles ([6]; vs bulk, Table 2): about ten-fold

From patent US9138659B2, “Compositions, methods, and systems relating to controlled crystallization and/or nucleation of molecular species” (Massachusetts Institute of Technology, priority 2010, dated 2015)
